CC50 data for three compounds are collected here from patent publication US10087173B2, “Substituted aminothiazoles as inhibitors of cancers, including hepatocellular carcinoma, and as inhibitors of hepatitis virus replication” (BARUCH S. BLUMBERG INSTITUTE, priority 2011, dated 2018).

The structures appear in SMILES notation. Where two headings read alike, the source gives them in different places.

Common to all, as to assay type: cell-based
One series deals with Huh7 cells. The series is described as follows: MTT cell viability assay, Huh7 cells, 72 h. To be noted: read-out: Huh7 CC50. The text has this: (§1) Huh-7 cells and derived from hepatocellular carcinoma cells, and were donated by Dr. Xuanyong Lu, (Drexel University College of Medicine, Doylestown, Pa.). THLE-2 were purchased from American Type Culture Collection (Manassas, Va.). PH5CH were donated by Dr. Masayuki Noguchi (University of Tsukuba, Ibaraki, Japan). THLE-2 and PH5CH have been immortalized through stable transfection of the SV40 large T antigen in normal hepatocytes, and are thus cell lines that are representative of normal hepatocytes rather than HCC cells. THLE2 have been confirmed to not form tumors in athymic mice. All cell lines were cultured and maintained in 5% CO2 at 37° C. Huh-7 were maintained in the culture media DMEM/F12 (Dulbecco's Modified Eagle Medium) with 10% Fetal bovine serum (FBS), 100 μg/mL penicillin, 100 units/mL streptomycin, and 50 μg/mL normocin. THLE-2 and PH5CH were maintained in the culture media Brochial Epithelial Growth Media (BEGM) with 10% FBS, 100 μg/mL penicillin, 100 units/mL streptomycin, with the following additives form the prepackaged kit: Bovine pituitary extract (BPE), insulin, hydrocortisone, retinoic acid, transferrin, triiodothyronine, supplemented with 5 ng/ml human epidermal growth factor and 70 ng/ml phosphoethanolamine (Lonza Walkersville Inc., Walkersville, Md.).
(§2) Huh7 cells were plated on 96-well plates at 2.0×10^4 cells per well to permit grow in the presence of compounds of the disclosure. Compounds of the disclosure were prediluted and transferred to cell plates by automated liquid handling. Cells were incubated with compounds of the disclosure for 72 hours, after which culture growth and viability were assessed by addition of 50 μg/mL 3-(4,5-Dimethyl-2-thiazolyl)-2,5-diphenyl-2H-tetrazolium bromide (MTT) incubation for 4 hours at 37° C. Solubilization buffer (0.01M HCl, 10% SDS) was added followed by incubation at 37° C. overnight. Absorbance was measured at 570 nm (reference 630 nm). Compound of the disclosure were tested in Huh7, THLE-2 and PH5CH, over eight-point dilutions in half-log steps, testing 50.0, 16.6, 5.0, 1.66, 0.5, 0.166, 0.05, and 0.016 μM in 0.5% DMSO, with each concentration in duplicate wells. […] Each compound was tested from 2 to 7 times in separate assay trials.
(Formazan colour is commonly taken as a measure of viable cells.)

The next series relates to THLE2 cells. The series is described as follows: MTT cell viability assay, THLE2 cells, 72 h. To be noted: immortalized normal hepatocytes THLE2, 72 hours, 0.016-50.0 μM tested.
Source text: as §1, with “THLE2 have been confirmed to not form tumors in athymic mice.” left out
as §2
(§3) Selectivity of toxicity in HCC-derived cells over normal liver-derived cells is important for the purposes of developing a therapy that specifically targets the cancer with low toxicity for […]. The Selective Index (SI) is the ratio of CC50 in normal cells (THLE2 or PH5CH) over the CC50 in the liver cancer derived cells; thus, the higher the number, the lower the potential toxicity at an efficacious dose.

Another series deals with PH5CH cells. Briefly: MTT cell viability assay, PH5CH cells, 72 h. The conditions noted are these: immortalized normal hepatocytes PH5CH, 0.016-50.0 μM tested.
Source text: as §1, §2, §3

Series [1] in a line: MTT cell viability assay, THLE2 cells, 72 h. To be noted: human, immortalized normal hepatocytes THLE2, 72 hours, 0.016-50.0 μM tested.
Source text: as §1, with “THLE2 have been confirmed to not form tumors in athymic mice.” left out
as §2, §3

The nature of series [2]: MTT cell viability assay, PH5CH cells, 72 h. To be noted: human, immortalized normal hepatocytes PH5CH, 0.016-50.0 μM tested.
Source text: as §1, §2, §3

The CC50 is the concentration at which the toxic effect on the cells reaches its halfway point. Regarding `N#Cc1sc(Nc2ncccn2)nc1-c1ccccn1` [Entry 29], the CC50 in the series with Huh7 cells (hepatocellular carcinoma derived Huh7 cells, 72 hours, MTT, 0.016-50.0 μM tested) was at most 0.016 µM; in the series on THLE2 cells, at least 50 µM; in the series with PH5CH cells, at least 50 µM.
With `CC(C)c1sc(Nc2ncccn2)nc1-c1ccccn1` [Entry 24], in the series with Huh7 cells (Homo sapiens, Huh-7, 72 h), the CC50 is 11.3 µM. Besides, the CC50 at 72 h in series [1] and in series [2] was at least 50 µM throughout.
For `CCc1sc(Nc2ncccn2)nc1-c1ccccn1` [Entry 21], the CC50 in the series on Huh7 cells (Homo sapiens, Huh-7, hepatocellular carcinoma derived Huh7 cells, 72 hours, MTT, 0.016-50.0 μM tested) came to 15.4 µM. The CC50 at 72 h in series [1] stood at 24.7 µM; in series [2], 44.1 µM.
